Values quoted from earlier work, collected in patent publication US20110301202A1, “SPLA2 INHIBITOR CONJUGATE COMPOUNDS AND METHODS OF USE” (priority 2010, published 2011).

How the values were obtained:
[1] = following administration
[2] = once- or twice-daily, stable CVD population, also diabetic and high baseline LDL-C subpopulations

**Q.** Which results are given for `CCc1c(C(=O)C(N)=O)c2c(OCC(=O)OC)cccc2n1Cc1ccccc1` [A-002, [[3-(2-Amino-1,2-dioxoethyl)-2-ethyl-1-(phenylmethyl)-1H-indol-4-yl]oxy]acetic acid methyl ester]?
**A.** lipid levels (humans): decreases; LDL-C [2]: decreases; inflammatory marker levels [2]: decreases; small LDL-C particle levels [2]: decreases; total LDL-C particle levels [2]: decreases; total cholesterol [2]: decreases; absorption and hydrolysis of prodrug to A-001 [1]: rapidly absorbed and hydrolyzed to A-001
